Read-outs that look alike come from different tables or passages of the source.
How the values were obtained:
[1] = test system: cell viability without virus infection; assay: Cytotoxicity under the 229E CPE conditions without virus infection (CellTiter Glo); conditions: read-out: 229E CC50
[2] = target: 229E mPRO (Human coronavirus 229E (HCoV-229E), UniProt P0C6X1); assay: 229E mPRO enzymatic assay; assay type: biochemical, Human Coronavirus (HCov) 229E
Procedure: Compounds were assayed using standard methods to assess compound activity and IC50. […] The assay buffer contained 20 mM of Tris-HCl (pH 7.3), 100 mM of NaCl, 1 mM of EDTA, 5 mM of TCEP and 0.1% BSA.
The compounds were added to an assay plate.
IC50 values of compounds were calculated with the GraphPad Prism software using the nonlinear regression model of log(inhibitor) vs. response—Variable slope (four parameters). The inhibition activity was calculated using the formula below, IC50 values was calculated using the Inhibition % data. Inhibition %=[(Sample-Average ZPE)/(Average HPE-Average ZPE)]*100%^#

[3] = test system: HCoV 229E; assay: HCoV 229E cytopathic effect (CPE) assay; assay type: cell-based, Human Coronavirus (HCov) 229E; conditions: CellTiter Glo
Procedure: The antiviral activity of compounds was calculated based on the protection of the virus-induced CPE at each concentration normalized by the virus control.
Reagents and instruments used in this assay include luminescent cell viability assay kit CellTiter Glo (Promega) and Microplate Reader Synergy2 (BioTek).
Cytopathic effect (CPE) was measured by CellTiter Glo following the manufacturer's manual. The antiviral activity of compounds was calculated based on the protection of the virus-induced CPE at each concentration normalized by the virus control.

[4] = target: SARS-COV2 Mpro (Severe acute respiratory syndrome coronavirus 2 (2019-nCoV) (SARS-CoV-2), UniProt P0DTD1); assay: SARS-CoV2 Mpro enzymatic assay; assay type: biochemical; conditions: 25 nM Mpro, 25 μM substrate

Sequence of 229E mPRO (P0C6X1 2966-3267 limits assumed): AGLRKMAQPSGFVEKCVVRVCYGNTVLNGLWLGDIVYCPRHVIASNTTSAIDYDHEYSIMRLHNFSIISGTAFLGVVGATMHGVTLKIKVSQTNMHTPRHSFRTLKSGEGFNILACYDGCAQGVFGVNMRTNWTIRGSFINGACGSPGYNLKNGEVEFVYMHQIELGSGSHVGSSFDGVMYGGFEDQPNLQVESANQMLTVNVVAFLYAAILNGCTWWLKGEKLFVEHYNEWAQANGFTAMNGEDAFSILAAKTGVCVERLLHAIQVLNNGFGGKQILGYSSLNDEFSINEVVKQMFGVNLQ

SMILES	IC50 ([2]; read-out: 229E mPRO IC50) [µM]	EC50 [3] [µM]	also measured
CC(C)CC(NC(=O)c1nc2ncccc2[nH]1)C(=O)NC(C#N)CC1CCNC1=O (single isomer, unassigned) [130 (Isomer 1)]	–	–	CC50 [1]: > 30 µM
COc1cccc2[nH]c(C(=O)N[C@@H](CC(C)C)C(=O)N[C@@H](C[C@@H]3CCNC3=O)C(C#N)N3CCCC3)cc12 (single isomer, unassigned) [331 (Isomer 2)]	< 2	–	–
COc1cccc2[nH]c(C(=O)N[C@@H](CC3CC3)C(=O)N[C@H](C#N)C[C@@H]3CCCNC3=O)cc12 (single isomer, unassigned) [491 (Isomer 1)]	< 2	–	–
COc1cccc2[nH]c(C(=O)N[C@H](CC3CC3)C(=O)N[C@H](C#N)C[C@@H]3CCCNC3=O)cc12 (single isomer, unassigned) [491A (Isomer 2)]	–	–	IC50 [2]: < 2 µM
CCNC(C#N)[C@H](C[C@@H]1CCNC1=O)NC(=O)[C@H](CC(C)C)NC(=O)c1cc2c(OC)cccc2[nH]1 (single isomer, unassigned) [511 (Isomer 1)]	< 2	< 2	–
CCNC(C#N)[C@H](C[C@@H]1CCNC1=O)NC(=O)[C@H](CC(C)C)NC(=O)c1cc2c(OC)cccc2[nH]1 (single isomer, unassigned) [511 (Isomer 2)]	< 2	–	–
N#C[C@H](C[C@@H]1CCCNC1=O)NC(=O)[C@H](CC1CC1)NC(=O)c1cc2cccc(Cl)c2[nH]1 (single isomer, unassigned) [639 (Isomer 1)]	< 2	< 2	–
COc1cccc2[nH]c(C(=O)N3CC4(CCC4)CC3C(=O)N[C@H](C#N)C[C@@H]3CCCNC3=O)cc12 (single isomer, unassigned) [719 (Isomer 2)]	< 2	< 2	IC50 [4]: < 2 µM
COc1cccc2[nH]c(C(=O)N[C@@H](CC(C)C)C(=O)N[C@H](C#N)Cc3cn(C)cn3)cc12 [Compound 227, N-[(1S)-1-[[(1S)-1-cyano-2-(1-methylimidazol-4-yl)ethyl]carbamoyl]-3-methyl-butyl]-4-methoxy-1H-indole-2-carboxamide]	> 30	–	–
COc1cccc2[nH]c(C(=O)N[C@@H](CC(C)C)C(=O)N[C@@H](C[C@@H]3CCNC3=O)C(C#N)Nc3ccccc3)cc12 (some centres unmarked) [Compound 327]	< 2	–	IC50 [4]: < 2 µM
CCCOc1cccc2[nH]c(C(=O)N[C@@H](CC(C)C)C(=O)N[C@H](C#N)C[C@@H]3CCNC3=O)cc12 [Compound 379]	< 2	< 2	–
COc1cccc2[nH]c(C(=O)N3C[C@H](OC)C[C@H]3C(=O)N[C@H](C#N)C[C@@H]3CCNC3=O)cc12 [Compound 407]	< 2	< 2	–
N#C[C@H](C[C@@H]1CCCNC1=O)NC(=O)[C@H](CC1CC1)NC(=O)c1cc2cc(Cl)ncc2[nH]1 [Compound 717]	–	< 2	–
CC(C)(C)C[C@H](NC(=O)c1cc2cccc(Cl)c2[nH]1)C(=O)N[C@H](C#N)C[C@@H]1CCCNC1=O [Compound 721, 7-chloro-N—((S)-1-(((S)-1-cyano-2-((S)-2-oxopiperidin-3-yl)ethyl)amino)-4,4-dimethyl-1-oxopentan-2-yl)-1H-indole-2-carboxamide]	–	< 2	–
CC(C)(C)C[C@H](NC(=O)c1cc2ccc(Cl)c(Cl)c2[nH]1)C(=O)N[C@H](C#N)C[C@@H]1CCCNC1=O [Compound 725]	–	< 2	–
CC(C)(C)C[C@H](NC(=O)c1cc2c(Cl)ccc(Cl)c2[nH]1)C(=O)N[C@H](C#N)C[C@@H]1CCCNC1=O [Compound 735]	–	< 2	–
COc1ccc(Cl)c2[nH]c(C(=O)N[C@@H](CC(C)(C)C)C(=O)N[C@H](C#N)C[C@@H]3CCCNC3=O)cc12 [Compound 737]	–	< 2	–
COc1c(Cl)ccc2[nH]c(C(=O)N[C@@H](CC(C)(C)C)C(=O)N[C@H](C#N)C[C@@H]3CCCNC3=O)cc12 [Compound 739]	–	< 2	–
CC(C)(C)C[C@H](NC(=O)c1cc2ccc(Cl)cc2[nH]1)C(=O)N[C@H](C#N)C[C@@H]1CCCNC1=O [Compound 745]	–	< 2	–

From US11312704B2, “Inhibitors of cysteine proteases and methods of use thereof” (priority 2020, dated 2022)
